In US6855309B2, “Cascade polymer bound complexing compounds, their complexes and conjugates, processes for their production, and pharmaceutical agents containing them” (Schering, AG, priority 1989, dated 2005):
Like-named read-outs stand apart in the source and are kept apart here.

Assays:
[1] = in vivo, cited from earlier work
Osmolality = type: physicochemical; settings: 0.5 mol/l at 37° C.
mice = test: LD50 i.v. in mice; type: in vivo
[2] = Concentration-time curve in blood after intravenous administration in rats; type: in vivo; settings: 0.2 mmol/kg intravenous
[3] = rat, in vivo; cited from earlier work
[4] = rat, in vivo; cited from earlier work; remark: listed apart in the source

CNC[C@H](O)[C@@H](O)[C@H](O)[C@H](O)CO.CNC[C@H](O)[C@@H](O)[C@H](O)[C@H](O)CO.O=C([O-])CN(CCN(CC(=O)[O-])CC(=O)O)CCN(CC(=O)[O-])CC(=O)O.[Gd+3] [Magnevist, GdDTPA/dimeglumine]
route of elimination ([1]; iv): eliminated, upon intravenous injection, by way of the kidneys
distribution after intravenous administration [1]: distributed after intravenous administration uniformly between the vasal and interstitial spaces
Osmolality (Osmolality): 1.96 osmol/kg
LD50 (mice): ≤ 10 mmol/kg
distribution space [2]: distributed in the extracellular space

Albumin-GdDTPA
dose eliminated [3]: 20 % of the dose

polylysine-GdDTPA
route of elimination [4]: eliminated unchanged by glomerular filtration via the kidneys
